Data set [1] addresses VEGFR2 (Homo sapiens, UniProt P35968). Nature of the data set: Biochemical kinase assay, VEGFR2. The conditions noted are these: for inhibition at 10 µM: read-out: Percent inhibition at 10 μM; for IC50: n=1, 10‐dose IC50 mode with twofold serial dilutions, starting at 10 μM.
The test system of data set [2] is HEK293T/17 cells. The note with it: for Cytostatic effect (in words): HEK293T/17 cells; for Cytostatic effect at concentrations above: 200–0.4 μM range.
Data set [3] deals with human HDHODH (Homo sapiens, UniProt Q02127). In words: HDHODH inhibition, in vitro fluorescence‐based assays run by Reaction Biology. The data set is classed as biochemical.
Sequence of human HDHODH (Q02127 whole entry): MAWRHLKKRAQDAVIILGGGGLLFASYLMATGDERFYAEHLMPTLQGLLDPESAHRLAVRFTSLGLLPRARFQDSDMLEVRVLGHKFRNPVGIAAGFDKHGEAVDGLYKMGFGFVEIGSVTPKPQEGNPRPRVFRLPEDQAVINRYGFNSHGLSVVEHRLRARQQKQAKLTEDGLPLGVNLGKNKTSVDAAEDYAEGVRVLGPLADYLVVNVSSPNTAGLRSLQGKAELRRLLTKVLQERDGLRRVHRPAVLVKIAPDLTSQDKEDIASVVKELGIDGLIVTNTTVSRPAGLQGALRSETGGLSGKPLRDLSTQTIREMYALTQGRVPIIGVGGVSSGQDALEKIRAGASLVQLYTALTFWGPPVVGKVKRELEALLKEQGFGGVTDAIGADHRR
Data set [4] concerns the target T1, SARS‐CoV‐2 M^pro (Severe acute respiratory syndrome coronavirus 2, UniProt P0DTD1).
T1 construct: M^pro releases the functional polypeptides from the polyproteins by extensive proteolytic processing
Nature of the data set: M^Pro inhibition (fluorescence‐based turnover assay / dose response). The data set is classed as biochemical. The note with it: enzyme inhibition; 17: fluorescence‐based turnover assay.

In data set [5] the test system is Pseudotyped SARS CoV2. The data set is classed as cell-based. The note with it: HEK293T/17 with ACE2 and TMPRSS2, 48 hours, toxic concentrations excluded, normalised data.

Structures are written as SMILES. Where “and” joins values, the source holds several entries; their conditions need not be identical. Identical values can stand only once. Entries after “also recorded” stand apart in the source; their conditions may differ. Like-named read-outs stand apart in the source and are kept apart here. Some results are limits rather than exact numbers.

Sequence of VEGFR2 (P35968 20-1356): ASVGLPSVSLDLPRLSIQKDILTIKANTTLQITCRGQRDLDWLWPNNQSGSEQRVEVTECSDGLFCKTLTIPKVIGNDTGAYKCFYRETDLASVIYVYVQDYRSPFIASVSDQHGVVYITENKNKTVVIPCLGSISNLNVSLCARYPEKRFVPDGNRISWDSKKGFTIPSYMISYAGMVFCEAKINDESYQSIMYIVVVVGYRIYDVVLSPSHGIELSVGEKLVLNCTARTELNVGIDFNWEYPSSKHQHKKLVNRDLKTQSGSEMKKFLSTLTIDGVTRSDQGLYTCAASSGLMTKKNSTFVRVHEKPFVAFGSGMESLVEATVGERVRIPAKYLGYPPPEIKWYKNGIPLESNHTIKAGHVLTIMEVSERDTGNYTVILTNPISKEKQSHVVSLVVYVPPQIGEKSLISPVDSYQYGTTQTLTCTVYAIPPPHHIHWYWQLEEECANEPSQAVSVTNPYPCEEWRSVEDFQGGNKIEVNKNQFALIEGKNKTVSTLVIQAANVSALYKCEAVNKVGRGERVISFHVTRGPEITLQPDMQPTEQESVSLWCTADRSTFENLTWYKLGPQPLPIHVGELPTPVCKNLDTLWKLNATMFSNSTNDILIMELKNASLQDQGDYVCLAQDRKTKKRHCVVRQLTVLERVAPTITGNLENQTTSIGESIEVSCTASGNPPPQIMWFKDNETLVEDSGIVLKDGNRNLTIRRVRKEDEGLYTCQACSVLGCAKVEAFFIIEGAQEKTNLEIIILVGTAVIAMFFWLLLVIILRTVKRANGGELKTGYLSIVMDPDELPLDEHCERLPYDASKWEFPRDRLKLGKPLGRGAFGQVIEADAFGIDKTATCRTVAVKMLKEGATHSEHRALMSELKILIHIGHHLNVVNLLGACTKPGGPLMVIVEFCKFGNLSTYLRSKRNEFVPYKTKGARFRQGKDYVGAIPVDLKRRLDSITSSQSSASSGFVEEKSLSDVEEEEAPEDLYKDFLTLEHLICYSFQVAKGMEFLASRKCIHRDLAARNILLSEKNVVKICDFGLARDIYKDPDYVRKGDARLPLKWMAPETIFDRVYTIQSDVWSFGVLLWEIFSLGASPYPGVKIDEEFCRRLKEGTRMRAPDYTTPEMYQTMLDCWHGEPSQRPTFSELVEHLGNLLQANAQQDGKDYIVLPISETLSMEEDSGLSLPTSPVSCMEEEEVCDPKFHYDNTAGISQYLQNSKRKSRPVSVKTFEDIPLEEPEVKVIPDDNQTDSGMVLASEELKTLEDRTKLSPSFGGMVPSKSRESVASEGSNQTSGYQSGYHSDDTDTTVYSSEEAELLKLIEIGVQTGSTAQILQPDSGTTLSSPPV

Regarding `Cc1cc(C)c(/C=C2\C(=O)Nc3cc(S(F)(F)(F)(F)F)ccc32)[nH]1` [9 a, (3Z)‐3‐[(3,5‐Dimethyl‐1H‐pyrrol‐2‐yl)methylidene]‐6‐(pentafluoro‐λ^6‐sulfanyl)‐2,3‐dihydro‐1H‐indol‐2‐one], the melting point (as a rule, the temperature, or range, at which the solid turns liquid) was 199 to 201 °C. Also, in data set [1], the inhibition – broadly, the relative decrease from the control value, in per cent – at 10 µM came to 23% and the IC50 (in general, the concentration that inhibits the measured activity by half) is given as “did not manifest sufficient inhibition to generate IC50 values”.

Turning to `N#C/C(C(=O)Nc1ccc(F)cc1)=C(/O)c1ccc(Cl)cc1` [compound 17], in data set [2] (HEK293T/17, MTS, 48 hours), the “Cells healthy up to” value is reported as “up to 50 μM”. The “Cytostatic effect (in words)” value in data set [2] is “less cytostatic”. Also, the “Activity versus HDHODH (in words)” value in data set [3] was “inactive; also recorded: no affinity”. Also, in data set [3] (HDHODH, 10 μM, read-out: Percent inhibition at 10 μM), the inhibition at 10 µM was below 10%. This molecule came in with a half-inhibitory concentration (IC50) in data set [4] of 230 nM. Moreover, in data set [5], the “Effect on SARS‐CoV‐2 infection of target cells (in words)” value (from here on “Effect on SARS‐CoV‐2 infection”) is recorded as “enhancing effect”.

`Cc1oncc1C(=O)Nc1ccc(S(F)(F)(F)(F)F)cc1` [compound 15, 5‐Methyl‐N‐[4‐(pentafluoro‐λ^6‐sulfanyl)phenyl]‐1,2‐oxazole‐ 4‐carboxamide] displayed a melting point of 167 to 168 °C. The “Cytostatic effect (in words)” value in data set [2] was “cytostatic”. The IC50 in data set [3] (IC50, HDHODH inhibition) was found to be 365 nM. The “Effect on SARS‐CoV‐2 infection” value in data set [5] is “satisfactory inhibition of SARS‐CoV‐2 infection”.

`O=C1Nc2ccc(S(F)(F)(F)(F)F)cc2C12CCOCC2` [11 a, 5‐(Pentafluoro‐λ^6‐sulfanyl)‐1,2‐dihydrospiro[indole‐3,4′‐ oxan]‐2‐one] returned a melting point of 247 to 249 °C.

For `CN1C(=O)C2(CCOCC2)c2cc(S(F)(F)(F)(F)F)ccc21` [11 b, 1‐Methyl‐5‐(pentafluoro‐λ^6‐sulfanyl)‐1,2‐dihydrospiro[indole‐ 3,4′‐oxan]‐2‐one], the melting point stood at 158 °C.

`O=C(c1cccc(S(F)(F)(F)(F)F)c1)N1CCCCC1` [3 a, [3‐(Pentafluoro‐λ^6‐sulfanyl)phenyl](piperidin‐1‐yl)methanone] registered a melting point of 88 to 90 °C.

With `C/C(O)=C(\C#N)C(=O)Nc1ccc(S(F)(F)(F)(F)F)cc1` [compound 16, (2Z)‐2‐Cyano‐3‐hydroxy‐N‐[4‐(pentafluoro‐λ^6‐sulfanyl)phenyl] but‐2‐enamide], the melting point was 167 to 170 °C. Besides, the “Cytostatic effect at concentrations above” value in data set [2] (HEK293T/17, MTS, 48 hours) is above 3.1 µM. Besides, in data set [2], the “Cytostatic effect (in words)” value is given as “cytostatic”. Moreover, in data set [2] (listed as SF5-teriflunomide), the “Cytostatic effect (in words)” value was “strong cytostatic”. Besides, in data set [3] (IC50, HDHODH inhibition), the IC50 was 27 nM. In addition, in data set [3] (IC50, individual determinations behind the mean (n=2), HDHODH inhibition), the IC50 was 29 nM and 25 nM. Also, in data set [3] (relative to Teriflunomide, listed as SF5‐Teriflunomide), the “Activity/affinity towards HDHODH compared with Teriflunomide” value is given as “approximately twice as active; also recorded: approximately two‐fold greater affinity”. For the same molecule, the “Effect on SARS‐CoV‐2 infection” value in data set [5] (listed as SF5-teriflunomide) is reported as “no effect”.

In turn, `CS(=O)(=O)N1CCN(C(=O)c2cccc(S(F)(F)(F)(F)F)c2)CC1` [3 f, (3‐Pentafluoro‐λ^6‐sulfanyl phenyl)(4‐(methylsulfonyl)piperazin‐1‐yl)methanone] showed a melting point of 159 to 160 °C.

Molecule `Cc1cc(C)c(/C=C2\C(=O)Nc3ccc(S(F)(F)(F)(F)F)cc32)[nH]1` [8 a, (3Z)‐3‐[(3,5‐Dimethyl‐1H‐pyrrol‐2‐yl)methylidene]‐5‐(pentafluoro‐λ^6‐sulfanyl)‐2,3‐dihydro‐1H‐indol‐2‐ one] yielded a melting point of 203 to 205 °C. In data set [1], the inhibition at 10 µM was 27% and the IC50 entry was “did not manifest sufficient inhibition to generate IC50 values”.

Molecule `O=C(c1cccc(S(F)(F)(F)(F)F)c1)N1CCOCC1` [3 c, [3‐(Pentafluoro‐λ^6‐sulfanyl)phenyl](morpholino)methanone] displayed a melting point of 63 to 64 °C.

Molecule `CC(C)=C1C(=O)Nc2ccc(S(F)(F)(F)(F)F)cc21` [8 b, 5‐(Pentafluoro‐λ^6‐sulfanyl)‐3‐(propan‐2‐ylidene)‐2,3‐dihydro‐1H‐indol‐2‐one] gave a melting point of 191 to 194 °C.

As for `C/C(O)=C(\C#N)C(=O)Nc1ccc(C(F)(F)F)cc1` [Teriflunomide, reference compound], the “Cytostatic effect at concentrations above” value in data set [2] (HEK293T/17, MTS, 48 hours) is given as “above 0.78 μM”. Also, the entries for the “Cytostatic effect (in words)” value in data set [2] and in data set [2] (listed as teriflunomide) were “cytostatic” and “strong cytostatic”, respectively. Further, the “Effect on SARS‐CoV‐2 infection” value in data set [5] (listed as teriflunomide) is on record as “no effect”.

The record behind these values is article PMC9305131, “Expanding the Repertoire of Low‐Molecular‐Weight Pentafluorosulfanyl‐Substituted Scaffolds” (Chemmedchem, 2022).
